Results published in patent EP0998946A1, “Non-porphyrin compound for use as a diagnosticum and/or pharmaceutical” (K.U. LEUVEN RESEARCH & DEVELOPMENT, priority 1998, dated 2000).

How the values were obtained:
[1] = tested on: Reperfused hepatic infarction in rats; test: MRI contrast enhancement, reperfused hepatic infarction in rats; assay type: in vivo, Wistar rats
necrotic liver = test: Biodistribution: tissue Gd content by ICP-AES in rats; details: Gadophrin-2 comparison
[2] = tested on: Acute myocardial infarction; test: MRI contrast enhancement, acute reperfused myocardial infarction in dogs; assay type: in vivo, Mongrel dogs; details: dog
[3] = tested on: Acute myocardial infarction; test: MRI contrast enhancement, reperfused myocardial infarction in rabbits; assay type: in vivo, New Zealand rabbits; details: rabbit heart, 18 hours after IV injection at 0.05 mmol/kg, T1-w spin echo
mice = test: Acute lethal toxicity (LD50) in mice
rats = test: Acute lethal toxicity (LD50) in rats; details: 5.0 mmol/kg
[4] = tested on: reperfused hepatic infarction; test: Scintigraphic imaging and infarction to normal tissue radioactivity ratio; assay type: in vivo, rat; details: 74 MBq
Experimental: Two effective and reproducible animal models have been induced and used in the in vivo assessment of newly synthesized agents. • 1. Reperfused hepatic infarction in rats: adult Wistar rats weighing about 350 grams were anesthetized with intraperitoneal injection of pentobarbital (Nembutal®, 40 mg/kg, Sanofi Sante Animale, B-1130 Brussels, Belgium). Under laparotomy, reperfused hepatic infarction was induced by temporarily clamping the hilum of the right liver lobes for 3 hours. The abdominal cavity was then closed and the rats were allowed to recover from surgery. • 2. Acute myocardial infarction in rabbits and dogs: under general anesthesia with Nembutal® at 6 mg/kg/h and intubated ventilation, adult New Zealand rabbits of 3 kg or Mongrel dogs of 20 kg underwent open-chest surgery through the seventh intercostal space. The left anterior descending (LAD) or circumflex (Cx) branch of the coronary artery was encircled and occluded with a snare-occluder for 150 minutes and reopened by losing the occluder to induce irreversible reperfused AMI. The thoracic cavity was closed by layers with the free air expelled.
[…] This animal was prepared as described above. Scintigraphic images were acquired during 1 to 5 minutes at regular time intervals up to 24 h after injection, using a Triad-gamma camera equipped with an ultra-high resolution parallel collimator.
After sacrificing the animal, organs were isolated and necrotic and viable liver parts were separated and weighed. Their 99m Tc radioactivity was measured using a sodium iodine scintillation detector coupled to a multichannel analyzer. The activity per gram tissue was a factor of 3.2 higher in necrotic liver tissue as compared to normal liver tissue.
This imaging result has been confirmed by radioactivity counting with a factor of more than 3 between infarcted and normal liver tissues.

[5] = rat, 0.05 mmol/kg, T1 weighted spin echo

With `CNC[C@H](O)[C@@H](O)[C@H](O)[C@H](O)CO.CNC[C@H](O)[C@@H](O)[C@H](O)[C@H](O)CO.O=C([O-])CN(CCN(CC(=O)[O-])CC(=O)O)CCN(CC(=O)[O-])CC(=O)O.[Gd+3]` [Gd-DTPA, reference compound] as the compound, how does the “contrast enhancement of the lesions” value ([1]; T1 weighted MRI, hepatic and myocardial infarcts, iv 0.05 mmol/kg (Gd-DTPA 0.1 mmol/kg), degree and duration equal to that with Gadophrin-2) read?
The value was “only enhances nonspecifically the lesions at the early phase (<2h)”.

With gadolinium mesoporphyrin [Gadophrin-2] as the compound, how does the “Gadolinium content, proportion necrotic liver to normal liver” value (necrotic liver) read?
The value was “one-to-one”.

“N,N'-Bis(diethylenetriamino penta-acetato)-4,4'-methylene bis(3-hydroxy-2-naphthalene carboxylic hydrazide), Gd-complex, sodium salt [ECIII-60]” was tested. Which “signal intensity of infarcted liver versus normal liver” value ([1]; rat, 0.05 mmol/kg, 60 minutes after injection, T1 weighted spin echo) did it give?
The value was “surpassed that of normal liver”.

What about the “time at which the necrosis-to-normal contrast reached maximum” value [1, 5] of the same compound?
Its value is 24 h.

What about the “time until the enhancement of the necrosis became homogeneous” value [1, 5] of the same compound?
The value was “within a couple of hours”.

And the “enhancement at the infarcted papillary muscle” value ([2]; eighteen hours after contrast, 0.05 mmol/kg IV)?
Its value is “extremely strong enhancement”.

And the “signals of blood pool and papillary muscle” value ([2]; ten minutes after IV injection at 0.05 mmol/kg, T1-w turbo-FLASH)?
Its value is “strongly enhanced”.

What about the “enhancement of the transmural infarct” value [3] of the same compound?
Its value is “persistently enhanced”.

What about the “No. Deaths/No. animals” value (mice; 2.15 mmol/kg) of the same compound?
Its value is 0/4.

What about the “No. Deaths/No. animals” value (mice; 5.0 mmol/kg) of the same compound?
Its value is 3/3.

What about the “No. Deaths/No. animals” value (rats) of the same compound?
Its value is 4/4.

Which results are given for “N,N'-Bis(diethylenetriamino penta-acetato)-4,4'-methylene bis(3-hydroxy-2-naphthalene carboxylic hydrazide), technetium-99m complex, sodium salt [Example 3]”?
nuclear scintigraphy finding ([4]; rat with reperfused right liver lobe infarction, 24 hours after administration): hot spot caused by accumulation tracer in the necrotic liver lobe only; activity per gram tissue, factor necrotic liver tissue versus normal liver tissue ([4]; rat, 99mTc radioactivity of isolated liver parts after sacrifice): 3.2; scintigraphic visualization of the infarcted region ([4]; rat, images acquired 20 h after injection): Clear visualization of the infarcted region; radioactivity counting, factor between infarcted and normal liver tissues ([4]; rat, 24 hours after administration): more than 3
